Test results: patent US6441011B1, “Combined preparation consisting of 2-methylthiazolidine-2,4-dicarboxylic acid and paracetamol” (priority 1997, dated 2002)
Marks after values point to notes of the source that are not given here.

How the values were obtained:
mice [1] = assay: Time-dosage dependency: GSH in hepatic tissue after CP injection; type: in vivo; details: for GSH % of control / GSH: mice
mice [2] = assay: Paracetamol liver damage and pre-treatment with CP: indicator substances in hepatic tissue and blood; type: in vivo; details: for Cysteine / Cystine / Glycogen / Non-protein SH / Oxygen radicals / Protein SH / Total SH / AlAT / AspAT: CP 1.2 mmol/kg pre-treatment, 12 h later paracetamol 600 mg/kg i.p. or control solution; for Cysteine / Cystine / Glycogen / Non-protein SH / Oxygen radicals / Protein SH / Total SH: tissue after another 3 h; for AlAT / AspAT: blood serum, blood after another 3 h; for concentration of oxygen radicals / concentration of sulfhydryl groups / free cysteines in the hepatic tissue / glycogen in the hepatic tissue / enzymes in the blood serum released from the liver (AlAT, AspT): paracetamol 600 mg/kg single dose, CP pre-treatment 1.2 mmol/kg; for enzymes in the blood serum released from the liver (AlAT, AspT): within 3 hours
Description: (§1) The mice were pre-treated using 1.2 mmol CP/kg, and 12 hours later they were treated with the control solution or 600 mg of paracetamol/kg of body weight i.p. Hepatic tissue and blood were extracted after another 3 hours, and the indicator substances were measured.

mice [3] = assay: Toxic effects of CP under in-vivo conditions; details: up to a dose of 2.4 mmol CP/kg of body weight
Description: as §1

Hep G2 cells = assay: Cytotoxicity of paracetamol and protective action of CP on permanent hepatic cell line; type: cell-based
Description: The cells were kept for 10 days in a medium that contained paracetamol (1 mM). […] The concentrations of the indicator substances were measured at the end of the period of exposure (Table 3). […] It is therefore recommended to choose higher AA concentrations for later experiments.

[4] = CP 1.2 mmol/kg, 8 h after injection
[5] = CP 2.4 mmol/kg, 4 h after injection
[6] = Hep G2 cells, 10 days, AA 1 mM, simultaneous CP 2 mM
[7] = Hep G2 cells, 10 days, AA 1 mM, CP 2 mM

| SMILES | Cysteine (mice [2]) | Cystine (mice [2]) | Glycogen (mice [2]) | Non-protein SH (mice [2]) | Oxygen radicals (mice [2]) | Protein SH (mice [2]) | Total SH (mice [2]) | AlAT (mice [2]) | AspAT (mice [2]) | concentration of oxygen radicals (mice [2]) | concentration of sulfhydryl groups (mice [2]) | free cysteines in the hepatic tissue (mice [2]) | glycogen in the hepatic tissue (mice [2]) | enzymes in the blood serum released from the liver (AlAT, AspT) (mice [2]) | L-cysteine and cystine concentrations (Hep G2 cells; [6]) | free radicals (Hep G2 cells; [6]) | other results |
| --- | --- | --- | --- | --- | --- | --- | --- | --- | --- | --- | --- | --- | --- | --- | --- | --- | --- |
| CC1(C(=O)O)NC(C(=O)O)CS1 (centres unmarked) [CP, 2-methyl-thiazolidine-2,4-dicarboxylic acid] | 0.240^a ± μmol/g wet weight of the liver | 0.020^a ± μmol/g wet weight of the liver | 12.59 ± 0.21 mg/g wet weight of the liver | 3.81^a ± μmol/g wet weight of the liver | 0.120^a ± μmol/g wet weight of the liver | 13.27^a ± μmol/g wet weight of the liver | 17.08^a ± μmol/g wet weight of the liver | 20 units/l | 199 units/l | significantly reduced | reduced the decrease | significantly increased | significantly increased | suppressed the increase | more than compensated | prevented | increase of glutathione concentration in the hepatic tissue (mice [1]; after 12 hours, 1.2 or 2.4 mmol/kg of body weight): could still be detected; GSH % of control (mice [1]; CP 1.2 mmol/kg, 1 h after injection): 117.5 % of control; GSH % of control (mice [1]; CP 1.2 mmol/kg, 4 h after injection): 87.2 % of control; GSH (mice [1]; [4]): 6.48 ± 0.67 μmol/g of wet weight; GSH % of control (mice [1]; [4]): 108.5 % of control; GSH % of control (mice [1]; CP 1.2 mmol/kg, 12 h after injection): 122.0 % of control; GSH % of control (mice [1]; CP 2.4 mmol/kg, 1 h after injection): 127.6 % of control; GSH (mice [1]; [5]): 5.76 ± 0.42 μmol/g of wet weight; GSH % of control (mice [1]; [5]): 90.3 % of control; GSH % of control (mice [1]; CP 2.4 mmol/kg, 8 h after injection): 112.0 % of control; GSH % of control (mice [1]; CP 2.4 mmol/kg, 12 h after injection): 154.5 % of control; glutathione concentration in the hepatic tissue (mice [1]; within one hour post application of 1.2 or 2.4 mmol/kg of body weight): rose considerably; toxic effects (mice [3]): no toxic effects; effect against high concentrations of paracetamol in the hepatic cell model (Hep G2 cells; Hep G2 cell culture): protective effect |
| CC(=O)Nc1ccc(O)cc1 [Paracetamol, paracetamol] | 0.062^a ± μmol/g wet weight of the liver | 0.025^a ± μmol/g wet weight of the liver | 8.45^a ± mg/g wet weight of the liver | 0.22^a ± μmol/g wet weight of the liver | 0.317^a ± μmol/g wet weight of the liver | 12.34 ± 0.20 μmol/g wet weight of the liver | 12.56^a ± μmol/g wet weight of the liver | 682 units/l | 855 units/l | increased | dropped dramatically | dropped dramatically | dropped dramatically | enormous increase | dropped slightly | increase | concentrations of the other indicator substances (Hep G2 cells; Hep G2 cells, 10 days, AA 1 mM): remained unchanged; Cysteine (Hep G2 cells; [7]): 3.68 nmol/mg Protein; Cystine (Hep G2 cells; [7]): 0.130 nmol/mg Protein; GSH (Hep G2 cells; [7]): 14.9 nmol/mg Protein; Glutamine synthetase (Hep G2 cells; [7]): 0.41 units/mg protein; LDH (Hep G2 cells; [7]): 1.88 units/mg protein; NPSH (Hep G2 cells; [7]): 18.90 nmol/mg Protein; free radicals (Hep G2 cells; [7]): 0.210 nmol/mg Protein; number of cells (Hep G2 cells; [7]): 6 × 10^8 cells; vital cells (Hep G2 cells; [7]): 94% vital |
